Reference: the NIST ThermoML archive (doi:10.1021/je0301489)
Numbers after ± are expanded uncertainties.

Assays:
[1] = refractive index (Na D-line) (dimensionless); xn = mol fraction of the nth substance listed; conditions: 101.33 kPa, Liquid
[2] = xn = mol fraction of the nth substance listed; conditions: 101.33 kPa, Liquid

CCCCCCCCOC(=O)c1ccccc1C(=O)OCCCCCCCC [dioctyl 1,2-benzenedicarboxylate] + C1COCCO1
Conditions	mass density, 298.15 K [kg/m3]	mass density, 303.15 K [kg/m3]	mass density, 308.15 K [kg/m3]	refractive index, 298.15 K	refractive index, 303.15 K	refractive index, 308.15 K	speed of sound, 298.15 K [m/s]	viscosity, 298.15 K [mPa·s]	viscosity, 303.15 K [mPa·s]	viscosity, 308.15 K [mPa·s]
[1], x2 = 0	–	–	–	1.485 ± 0.0025	1.4831 ± 0.0025	1.481 ± 0.0025	–	–	–	–
[1], x2 = 0.1337	–	–	–	1.4836 ± 0.0025	1.4819 ± 0.0025	1.4804 ± 0.0025	–	–	–	–
[1], x2 = 0.2243	–	–	–	1.4822 ± 0.0025	1.4798 ± 0.0025	1.4775 ± 0.0025	–	–	–	–
[1], x2 = 0.3207	–	–	–	1.4812 ± 0.0025	1.4784 ± 0.0025	1.4756 ± 0.0025	–	–	–	–
[1], x2 = 0.4226	–	–	–	1.4781 ± 0.0025	1.4771 ± 0.0025	1.4762 ± 0.0025	–	–	–	–
[1], x2 = 0.5169	–	–	–	1.4733 ± 0.0025	1.4717 ± 0.0025	1.47 ± 0.0025	–	–	–	–
[1], x2 = 0.6054	–	–	–	1.4692 ± 0.0025	1.4673 ± 0.0025	1.4652 ± 0.0025	–	–	–	–
[1], x2 = 0.7161	–	–	–	1.463 ± 0.0025	1.461 ± 0.0025	1.46 ± 0.0025	–	–	–	–
[1], x2 = 0.8031	–	–	–	1.4566 ± 0.0025	1.4541 ± 0.0025	1.4516 ± 0.0025	–	–	–	–
[1], x2 = 0.9017	–	–	–	1.4422 ± 0.0025	1.4401 ± 0.0025	1.4379 ± 0.0025	–	–	–	–
[2], x2 = 0	980.7 ± 1	977.1 ± 1	973.1 ± 1	–	–	–	1421 ± 3	43.03 ± 0.7	30.18 ± 0.5	21.88 ± 0.37
[2], x2 = 0.1337	982.2 ± 1	978.3 ± 1	974.4 ± 1.1	–	–	–	1416 ± 3	32.58 ± 0.54	24.97 ± 0.42	17.36 ± 0.3
[2], x2 = 0.2243	983.4 ± 1	979.4 ± 1	975.2 ± 1.1	–	–	–	1412 ± 3	26.39 ± 0.44	20.41 ± 0.35	14.44 ± 0.26
[2], x2 = 0.3207	984.8 ± 1	980.5 ± 1	976.4 ± 1.1	–	–	–	1406 ± 3	20.73 ± 0.36	16.1 ± 0.28	11.47 ± 0.21
[2], x2 = 0.4226	986.5 ± 1	982.2 ± 1	977.8 ± 1.1	–	–	–	1400 ± 3	15.4 ± 0.27	12.12 ± 0.22	8.836 ± 0.17
[2], x2 = 0.5169	988.4 ± 1	983.9 ± 1.1	979.6 ± 1.1	–	–	–	1394 ± 3	11.02 ± 0.21	8.852 ± 0.17	6.689 ± 0.14
[2], x2 = 0.6054	990.7 ± 1	986.3 ± 1.1	981.9 ± 1.1	–	–	–	1388 ± 3	8.056 ± 0.16	6.528 ± 0.13	5.001 ± 0.11
[2], x2 = 0.7161	995 ± 1.1	990.5 ± 1.1	985.9 ± 1.1	–	–	–	1379 ± 3	4.947 ± 0.11	4.096 ± 0.091	3.246 ± 0.073
[2], x2 = 0.8031	1000.2 ± 1.1	995.4 ± 1.1	990.6 ± 1.1	–	–	–	1372 ± 3	3.213 ± 0.073	2.717 ± 0.062	2.222 ± 0.052
[2], x2 = 0.9017	1009.9 ± 1.1	1004.6 ± 1.1	999.5 ± 1.2	–	–	–	1361 ± 3	1.863 ± 0.044	1.612 ± 0.039	1.361 ± 0.033

CCOC(=O)CC(C)=O [ethyl 3-oxobutanoate] + C1COCCO1
Conditions	mass density, 298.15 K [kg/m3]	mass density, 303.15 K [kg/m3]	mass density, 308.15 K [kg/m3]	refractive index, 298.15 K	refractive index, 303.15 K	refractive index, 308.15 K	speed of sound, 298.15 K [m/s]	viscosity, 298.15 K [mPa·s]	viscosity, 303.15 K [mPa·s]	viscosity, 308.15 K [mPa·s]
[1], x2 = 0	–	–	–	1.4166 ± 0.0007	1.4145 ± 0.0007	1.412 ± 0.0007	–	–	–	–
[1], x2 = 0.1134	–	–	–	1.417 ± 0.0007	1.4146 ± 0.0007	1.4122 ± 0.0007	–	–	–	–
[1], x2 = 0.2058	–	–	–	1.4171 ± 0.0007	1.4148 ± 0.0007	1.4124 ± 0.0007	–	–	–	–
[1], x2 = 0.3054	–	–	–	1.4174 ± 0.0007	1.415 ± 0.0007	1.4126 ± 0.0007	–	–	–	–
[1], x2 = 0.4008	–	–	–	1.4176 ± 0.0007	1.4154 ± 0.0007	1.413 ± 0.0007	–	–	–	–
[1], x2 = 0.4986	–	–	–	1.4178 ± 0.0007	1.4155 ± 0.0007	1.413 ± 0.0007	–	–	–	–
[1], x2 = 0.5955	–	–	–	1.418 ± 0.0007	1.416 ± 0.0007	1.4132 ± 0.0007	–	–	–	–
[1], x2 = 0.6972	–	–	–	1.4186 ± 0.0007	1.4162 ± 0.0007	1.4137 ± 0.0007	–	–	–	–
[1], x2 = 0.7971	–	–	–	1.4192 ± 0.0007	1.4166 ± 0.0007	1.414 ± 0.0007	–	–	–	–
[1], x2 = 0.8964	–	–	–	1.4195 ± 0.0007	1.4169 ± 0.0007	1.4144 ± 0.0007	–	–	–	–
[2], x2 = 0	1020.9 ± 1.1	1014.9 ± 1.2	1010.2 ± 1.2	–	–	–	1331 ± 3	1.48 ± 0.019	1.339 ± 0.017	1.239 ± 0.016
[2], x2 = 0.1134	1021.5 ± 1.1	1016 ± 1.2	1010.6 ± 1.2	–	–	–	1335 ± 3	1.425 ± 0.018	1.311 ± 0.017	1.197 ± 0.016
[2], x2 = 0.2058	1022.1 ± 1.1	1016.5 ± 1.2	1011 ± 1.2	–	–	–	1338 ± 3	1.386 ± 0.018	1.276 ± 0.017	1.165 ± 0.015
[2], x2 = 0.3054	1022.7 ± 1.1	1017.1 ± 1.2	1011.4 ± 1.2	–	–	–	1340 ± 3	1.346 ± 0.017	1.24 ± 0.016	1.133 ± 0.015
[2], x2 = 0.4008	1023.3 ± 1.1	1017.6 ± 1.2	1011.9 ± 1.2	–	–	–	1342 ± 3	1.309 ± 0.017	1.205 ± 0.016	1.102 ± 0.015
[2], x2 = 0.4986	1024 ± 1.1	1018.2 ± 1.2	1012.4 ± 1.2	–	–	–	1344 ± 3	1.272 ± 0.017	1.172 ± 0.015	1.072 ± 0.014
[2], x2 = 0.5955	1024.7 ± 1.1	1018.8 ± 1.2	1013 ± 1.2	–	–	–	1345 ± 3	1.237 ± 0.016	1.14 ± 0.015	1.044 ± 0.014
[2], x2 = 0.6972	1025.4 ± 1.1	1019.5 ± 1.2	1013.7 ± 1.2	–	–	–	1346 ± 3	1.208 ± 0.016	1.115 ± 0.015	1.021 ± 0.014
[2], x2 = 0.7971	1026.1 ± 1.1	1020.3 ± 1.2	1014.4 ± 1.2	–	–	–	1346 ± 3	1.182 ± 0.015	1.091 ± 0.014	1 ± 0.013
[2], x2 = 0.8964	1026.8 ± 1.1	1021 ± 1.2	1015.2 ± 1.2	–	–	–	1347 ± 3	1.166 ± 0.015	1.077 ± 0.014	0.988 ± 0.013
